Values after ≈ are worked out from the molar mass of the structure shown. Read-outs that look alike come from different tables or passages of the source.
Experiments:
[1] = target: translocase I (Escherichia coli, UniProt P0A6W3); test: IC50 against translocase I; format: biochemical
[2] = test system: Mycobacterium tuberculosis (MTB); test: MIC by BACTEC radiometric method; format: cell-based; settings: for MIC90: MTB
Procedure: Determination of MIC. MIC of drugs for laboratory and clinical strains of Mycobacterium tuberculosis (MTB) was determined by BACTEC radiometric method as described by Heifets (1991), “Antituberculosis Drugs: Antimicrobial Activity in vitro, Drug Susceptibility in the Chemotherapy of Microbacterial Infections, Boca Raton, Fla., CRC Press and Luna-Herrera et al., Antimicrob. Agents and Chemother. 1995, 39(2), 440-444. […] The minimal inhibitory concentration (MIC) was defined as the lowest concentrations of drug that caused GI equal to or less than that of the 1/100 dilution growth control. Capuramycin analogues SQ641, SQ922 and SQ997 were tested at concentrations ranging from […].

[3] = test system: M. smegmatis (MSMG; MC2155); test: MIC by microdilution method in 7H9 broth; format: cell-based; settings: MSMG MC^2155, 72 hr
[4] = test system: M. abscessus (MAB; ATCC 700869); test: MIC by microdilution method in 7H9 broth; format: cell-based; settings: Mycobacteroides abscessus, ATCC700869; MAB 700869; read-out: MIC
[5] = test system: M. kansaii (MKN; ATCC12478 & 35775); test: MIC by microdilution method in 7H9 broth; format: cell-based, M. kansasii; settings: Mycobacterium kansasii, read-out: MIC
[6] = test system: M. avium complex (MAC); test: MIC by microdilution method in 7H9 broth; format: cell-based; settings: Mycobacterium avium; for MIC90: value in square brackets, read-out: MIC90
[7] = test system: MSMG and MTB (H37Rv); test: Minimum bactericidal concentration (MBC), MBC/MIC ratio; format: cell-based, Mycobacterium tuberculosis; M. smegmatis
[8] = test system: MTB cultures; test: Induction of morphological changes and bacterial disintegration; format: cell-based, Mycobacterium tuberculosis; settings: for Turbidity of MTB cultures: within 2 days of exposure
Excerpt: Induction of morphological changes and bacterial disintegration. […] Tubercle bacilli exposed to CM analogues were typically club-shaped, with deeply stained swollen ends (see Reddy et al. Antimicrob. Agents Chemother., 2008, 52(2), 719-721).

[9] = in vitro; format: cell-based; settings: mouse
Procedure: (§1) The SQ997 amino acid derivatives shown in Table 2 were tested for in vitro activity against MTB, cytotoxicity for uninfected J774 cells to determine IC50, and for intracellular activity in the macrophage assay (Table 15). […] Cell viability remained similar to SQ997, or slightly better as cell morphologic changes were reduced.

[10] = test system: MTB H37Rv; test: MIC by broth microdilution; format: cell-based; settings: Mycobacterium tuberculosis
Procedure: as §1

[11] = test system: MTB; test: In vivo efficacy in mouse model of chronic TB disease (lung CFU); settings: mice treated for 3 wk, starting 3 wk after infection, gav, ip, iv
Procedure: In vivo activity against MTB. In vivo efficacy of CM analogues was investigated in a mouse model of chronic TB disease (FIG. 2). Three wk after infection, mice were treated for 3 wk with the drugs by gavage (gav), intraperitoneal injection (ip), intravenous injection (iv), or intranasal (in) routes. Efficacy was analyzed by determining Colony-Forming Units (CFU) in lungs. […] Each achieved a decrease of 1-log10 lung CFU compared to the late control [LC] CFU by at least one route, which varied for each drug.

[12] = test system: MTB inside macrophages; test: Intracellular activity of DMSO-solubilized drug in MTB infected macrophages; format: cell-based, Mycobacterium tuberculosis; settings: for Mean RLU at Day 7: Day 0 RLU 443, Control Day 7 4251
[13] = Mycolicibacterium smegmatis, MC2155|MC^2155, read-out: MIC
[14] = ATCC 12478 / ATCC 35775, MKN ATCC35775
[15] = MAC strain NIH C1-1, read-out: MIC
[16] = MAC strain NIH C1-2, read-out: MIC
[17] = MAC strain NIH C1-3, read-out: MIC
[18] = MAC strain NIH C1-4, read-out: MIC

translocase I, sequence (P0A6W3 whole entry): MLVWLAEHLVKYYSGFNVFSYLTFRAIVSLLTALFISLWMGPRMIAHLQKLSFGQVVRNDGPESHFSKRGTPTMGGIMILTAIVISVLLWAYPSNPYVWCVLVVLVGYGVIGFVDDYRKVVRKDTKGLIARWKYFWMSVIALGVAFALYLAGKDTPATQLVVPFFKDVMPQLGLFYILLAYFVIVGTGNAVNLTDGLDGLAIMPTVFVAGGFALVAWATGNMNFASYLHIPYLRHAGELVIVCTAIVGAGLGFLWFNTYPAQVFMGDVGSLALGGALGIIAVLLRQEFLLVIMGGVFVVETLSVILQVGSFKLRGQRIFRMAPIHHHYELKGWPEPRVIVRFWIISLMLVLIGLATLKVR

CO[C@H]1[C@@H](O)[C@H](n2ccc(=O)[nH]c2=O)O[C@@H]1[C@@H](O[C@H]1OC(C(=O)N[C@H]2CCC[C@@H](C)NC2=O)=C[C@H](O)[C@@H]1O)C(N)=O [SQ997]
IC50 against translocase I [1]: 0.01 µg/mL (≈ 0.0171 µM)
MIC ([2]; H37RV, MTB strain H37Rv): 8 µg/mL (≈ 13.7 µM)
MIC90 [2]: 16 µg/mL (≈ 27.4 µM)
MIC ([2]; MTB strain 16): 16 µg/mL (≈ 27.4 µM)
MIC ([2]; MTB strain 113): 16 µg/mL (≈ 27.4 µM)
MIC ([2]; MTB strain 158): 8 µg/mL (≈ 13.7 µM)
MIC ([2]; MTB strain 606): 16 µg/mL (≈ 27.4 µM)
MIC ([2]; MTB strain 847): 16 µg/mL (≈ 27.4 µM)
MIC ([2]; MTB strain 1351): 16 µg/mL (≈ 27.4 µM)
MIC ([2]; MTB strain 1407): 16 µg/mL (≈ 27.4 µM)
MIC ([2]; MTB strain 1498): 16 µg/mL (≈ 27.4 µM)
MIC ([2]; MTB strain 1665): 16 µg/mL (≈ 27.4 µM)
MIC ([2]; MTB strain 1703): 16 µg/mL (≈ 27.4 µM)
MIC ([2]; MTB strain 1760): > 16 µg/mL
MIC ([2]; MTB strain 1782): > 16 µg/mL
MIC ([2]; MTB strain 1901): 16 µg/mL (≈ 27.4 µM)
MIC ([2]; MTB strain 1921): 16 µg/mL (≈ 27.4 µM)
MIC ([2]; MTB strain 2224): 16 µg/mL (≈ 27.4 µM)
MIC ([2]; MTB strain 2554): 16 µg/mL (≈ 27.4 µM)
MIC ([2]; MTB strain 2693): 16 µg/mL (≈ 27.4 µM)
MIC ([2]; MTB strain 8266): 8 µg/mL (≈ 13.7 µM)
MIC ([2]; MTB strain 8642): 16 µg/mL (≈ 27.4 µM)
MIC [3]: 8 µg/mL (≈ 13.7 µM)
MIC [3, 13]: 8 µg/mL (≈ 13.7 µM)
MIC [4]: 16 µg/mL (≈ 27.4 µM)
MIC [5, 14]: 4 µg/mL (≈ 6.85 µM)
MIC ([5]; MKN ATCC12478): 16 µg/mL (≈ 27.4 µM)
MIC ([6]; 336 h, MAC isolates, 2 wk, read-out: MIC (range)): 4 to 32 µg/mL (≈ 6.85 to 54.8 µM)
MIC ([6]; MAC strain 100, read-out: MIC): 16 µg/mL (≈ 27.4 µM)
MIC ([6]; MAC strain 101, read-out: MIC): 8 µg/mL (≈ 13.7 µM)
MIC ([6]; MAC strain 104, read-out: MIC): 16 µg/mL (≈ 27.4 µM)
MIC ([6]; MAC strain 109, read-out: MIC): 8 µg/mL (≈ 13.7 µM)
MIC ([6]; MAC strain A5, read-out: MIC): 16 µg/mL (≈ 27.4 µM)
MIC ([6]; MAC strain JSH1, read-out: MIC): 32 µg/mL (≈ 54.8 µM)
MIC [6, 15]: 8 µg/mL (≈ 13.7 µM)
MIC [6, 16]: 4 µg/mL (≈ 6.85 µM)
MIC [6, 17]: 16 µg/mL (≈ 27.4 µM)
MIC [6, 18]: 8 µg/mL (≈ 13.7 µM)
MIC90 ([6]; MAC isolates): 16 µg/mL (≈ 27.4 µM)
MBC/MIC ratio [7]: 1
Bacterial disintegration / clearance of MTB cultures [8]: rapid bacterial disintegration
Turbidity of MTB cultures [8]: marked fall in the turbidity
IC50 [9]: > 32 µg/mL
MIC [10]: 8 µg/mL (≈ 13.7 µM)
Routes by which replication of MTB in lungs was prevented (vs early control) [11]: gav and iv
Toxicity (4-day IV injections at 1000 mg/kg/day): No toxicity

CO[C@H]1[C@@H](O)[C@H](n2ccc(=O)[nH]c2=O)O[C@@H]1[C@@H](O[C@H]1OC(C(=O)Nc2ccc(F)c(F)c2)=C[C@H](O)[C@@H]1O)C(N)=O [SQ922]
IC50 against translocase I [1]: 0.009 µg/mL (≈ 0.0158 µM)
MIC ([2]; H37RV, MTB strain H37Rv): 2 µg/mL (≈ 3.51 µM)
MIC90 [2]: 8 µg/mL (≈ 14 µM)
MIC ([2]; MTB strain 16): 8 µg/mL (≈ 14 µM)
MIC ([2]; MTB strain 113): 2 µg/mL (≈ 3.51 µM)
MIC ([2]; MTB strain 158): 2 µg/mL (≈ 3.51 µM)
MIC ([2]; MTB strain 606): 4 µg/mL (≈ 7.01 µM)
MIC ([2]; MTB strain 847): 4 µg/mL (≈ 7.01 µM)
MIC ([2]; MTB strain 1351): 2 µg/mL (≈ 3.51 µM)
MIC ([2]; MTB strain 1407): 2 µg/mL (≈ 3.51 µM)
MIC ([2]; MTB strain 1498): 4 µg/mL (≈ 7.01 µM)
MIC ([2]; MTB strain 1665): 4 µg/mL (≈ 7.01 µM)
MIC ([2]; MTB strain 1703): 8 µg/mL (≈ 14 µM)
MIC ([2]; MTB strain 1760): 8 µg/mL (≈ 14 µM)
MIC ([2]; MTB strain 1782): 8 µg/mL (≈ 14 µM)
MIC ([2]; MTB strain 1901): 4 µg/mL (≈ 7.01 µM)
MIC ([2]; MTB strain 1921): 4 µg/mL (≈ 7.01 µM)
MIC ([2]; MTB strain 2224): 4 µg/mL (≈ 7.01 µM)
MIC ([2]; MTB strain 2554): 4 µg/mL (≈ 7.01 µM)
MIC ([2]; MTB strain 2693): 4 µg/mL (≈ 7.01 µM)
MIC ([2]; MTB strain 8266): 2 µg/mL (≈ 3.51 µM)
MIC ([2]; MTB strain 8642): 2 µg/mL (≈ 3.51 µM)
MIC [3]: 2 µg/mL (≈ 3.51 µM)
MIC [3, 13]: 2 µg/mL (≈ 3.51 µM)
MIC [4]: 16 µg/mL (≈ 28 µM)
MIC [5, 14]: 1 µg/mL (≈ 1.75 µM)
MIC ([5]; MKN ATCC12478): 16 µg/mL (≈ 28 µM)
MIC ([6]; MAC strain 100, read-out: MIC): 4 µg/mL (≈ 7.01 µM)
MIC ([6]; MAC strain 101, read-out: MIC): 1 µg/mL (≈ 1.75 µM)
MIC ([6]; MAC strain 104, read-out: MIC): 4 µg/mL (≈ 7.01 µM)
MIC ([6]; MAC strain 109, read-out: MIC): 0.5 µg/mL (≈ 0.876 µM)
MIC ([6]; MAC strain A5, read-out: MIC): 2 µg/mL (≈ 3.51 µM)
MIC ([6]; MAC strain JSH1, read-out: MIC): 16 µg/mL (≈ 28 µM)
MIC [6, 15]: > 32 µg/mL
MIC [6, 16]: 1 µg/mL (≈ 1.75 µM)
MIC [6, 17]: 8 µg/mL (≈ 14 µM)
MIC [6, 18]: 2 µg/mL (≈ 3.51 µM)
MIC90 ([6]; MAC isolates): 16 µg/mL (≈ 28 µM)
MBC/MIC ratio [7]: 1
Bacterial disintegration / clearance of MTB cultures [8]: rapid bacterial disintegration
Turbidity of MTB cultures [8]: marked fall in the turbidity
Mean RLU at Day 7 ([12]; 2 μg/ml): 1164 RLU
Mean RLU at Day 7 ([12]; 4 μg/ml): 1080 RLU
Mean RLU at Day 7 ([12]; 8 μg/ml): 1111 RLU
Mean RLU at Day 7 ([12]; 16 μg/ml): 496 RLU
Mean RLU at Day 7 ([12]; 32 μg/ml): 311 RLU
Mean RLU at Day 7 ([12]; 64 μg/ml): 134 RLU
Intracellular activity (FIG. 1) ([12]; 1× and 2× MIC): showed intracellular activities
Routes by which replication of MTB in lungs was prevented (vs early control) [11]: most routes
Toxicity (4-day IV injections at 500 mg/kg/day): No toxicity

— patent US20090281054A1, “COMPOSITIONS AND METHODS COMPRISING CAPURAMYCIN ANALOGUES” (priority 2008, published 2009)
